Results on three compounds are retold here after publication PMC6370209, “Rapid and sensitive detection of NADPH via mBFP-mediated enhancement of its fluorescence” (PLoS ONE, 2019).

SMILES strings stand for the structures.

The target in one assay is T1, NAD(H) kinase (MfnK) (Micrococcus luteus, UniProt Q8VUL9).
T1 construct: full-length gene from genomic DNA, C-terminal His tag (pET-22b(+)), expressed in E. coli BL21(DE3), purified
T1 sequence (Q8VUL9 1-362): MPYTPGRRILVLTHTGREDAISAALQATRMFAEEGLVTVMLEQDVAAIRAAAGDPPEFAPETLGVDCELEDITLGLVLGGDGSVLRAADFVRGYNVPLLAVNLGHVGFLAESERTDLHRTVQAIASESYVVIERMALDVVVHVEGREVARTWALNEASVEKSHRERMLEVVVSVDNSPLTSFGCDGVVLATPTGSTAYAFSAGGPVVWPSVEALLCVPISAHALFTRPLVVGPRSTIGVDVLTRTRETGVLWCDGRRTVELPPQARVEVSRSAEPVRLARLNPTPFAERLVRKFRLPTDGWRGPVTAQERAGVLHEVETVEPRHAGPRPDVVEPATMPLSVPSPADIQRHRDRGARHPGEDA
Nature of the assay: NADPH formation detected by mBFP fluorescence. It is filed as biochemical. The note with it: 50 mM Tris-HCl pH 7.5, 0.1 mM MgCl2, 0.5 mM ATP, 0.5 mM NADH.

In assay [1] the target is T2, mBFP (metagenome-derived blue fluorescent protein) (uncultured bacterium, UniProt D6NKF4).
T2 construct: full length, 248 amino acids, N-terminal 6-His tag kept (pQE30), expressed in E. coli XL1-Blue
T2 sequence (D6NKF4 1-248): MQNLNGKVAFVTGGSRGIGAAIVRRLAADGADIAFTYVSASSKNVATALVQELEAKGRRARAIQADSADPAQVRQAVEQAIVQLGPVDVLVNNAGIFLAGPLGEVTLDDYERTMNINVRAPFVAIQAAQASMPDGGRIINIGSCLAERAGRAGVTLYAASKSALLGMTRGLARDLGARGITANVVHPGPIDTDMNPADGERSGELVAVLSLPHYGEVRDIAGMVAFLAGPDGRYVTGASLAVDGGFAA
Nature of the assay: fluorescence enhancement of NADPH upon mBFP addition (ex […] nm, em […] nm). It is filed as binding. The note with it: […] Tris-HCl pH […] °C.

Assay [2] has as its target T2, mBFP (metagenome-derived blue fluorescent protein). Nature of the assay: competition with NADPH, attenuation of mBFP-NADPH fluorescence. The assay is classed as binding. The note with it: […] Tris-HCl pH […] °C; competitive with NADPH; excess NADP+.

For the compound `NC(=O)C1=CN([C@@H]2O[C@H](COP(=O)(O)OP(=O)(O)OC[C@H]3O[C@@H](n4cnc5c(N)ncnc54)[C@H](O)[C@@H]3O)[C@@H](O)[C@H]2O)C=CC1` [NADH], on NAD(H) kinase (MfnK), the “NADPH formation detected by mBFP fluorescence” value was “enzymatic conversion of NADH to NADPH by MfnK as a function of the NADH amount”. As to `NC(=O)C1=CN([C@@H]2O[C@H](COP(=O)(O)OP(=O)(O)OC[C@H]3O[C@@H](n4cnc5c(N)ncnc54)[C@H](OP(=O)(O)O)[C@@H]3O)[C@@H](O)[C@H]2O)C=CC1` [NADPH], the “fluorescence enhancement of NADPH upon mBFP addition (ex 350 nm, em 450 nm)” value in assay [1] is recorded as “An immediate enhancement of fluorescence was detected when the purified mBFP was added”. With `NC(=O)c1ccc[n+]([C@@H]2O[C@H](COP(=O)(O)OP(=O)(O)OC[C@H]3O[C@@H](n4cnc5c(N)ncnc54)[C@H](OP(=O)(O)O)[C@@H]3O)[C@@H](O)[C@H]2O)c1` [NADP^+], the “competition with NADPH, attenuation of mBFP-NADPH fluorescence” value in assay [2] is “excess NADP^+ resulted in competition for mBFP binding and attenuated the NADPH fluorescence enhancement”.
